Earlier results in patent US20040009212A1, “Mucoadhesive thermoresponsive medicament-carrier composition” (PHARMA POWER BIOTEC CO. LTD., priority 2002, published 2004).

Tested on: leukoplakia
Conditions: of 12 leukoplakia patients

**Q.** For `NCC(=O)CCC(=O)O` [ALA, 5-aminolevulinic acid], which patients having response (topical ALA in 20wt. % eucerin with arabic gum and paraffin, with PDT) is on record?
**A.** Its patients having response is 9 patients.

**Q.** And the “patients having full response” value (topical ALA with PDT)?
**A.** The value was 5 patients.
